{"source": "paper PMC12386934", "about": "“Characteristics and Potential of KSL, KSL-W, and Dadapin-1 Antimicrobial Peptides for Preventing Infections of Orthopedic Prosthetic Devices: Identifying the Most Robust Candidate” (International Journal of Molecular Sciences, 2025)", "tested_on": "osteoblast-like MG63 cells", "assay": "LDH cytotoxicity assay on osteoblast-like cells", "assay_type": "cell-based, human", "details": "1% Tween-20, Positive Control, 24 h, mean, SD ± 4.2%", "protocol": "MG63 cells (ATCC, Rockville, MD, USA) were thawed from a frozen stock and cultured in DMEM (11885-084, Thermo Fisher Scientific, Segrate, Italy) supplemented with non-inactivated 10% fetal bovine serum (FBS, F7524, Sigma-Aldrich, Milan, Italy) and 100× Penicillin/Streptomycin solution (P/S, 10,000 units penicillin and 10 mg streptomycin/mL, P4333, Sigma-Aldrich, Milan, Italy), under standard culture conditions (i.e., at 37 °C, in a humidified atmosphere with 5% CO2). Cells were regularly subcultured 2–3 times a week by using TrypLE Select 1× (GIBCO, Thermo Fisher Scientific, Segrate, Italy).\nA suspension of MG63 cells was prepared in complete DMEM at a concentration of 5 × 10^4 cells/mL. […]\nCytotoxicity was assessed by measuring the release of lactate dehydrogenase (LDH) from damaged cells by the LDH Cytotoxicity Assay (ab197004, Abcam, Cambridge, UK), strictly following the instructions of the manufacturer. […] After 10 min shaking, the plate was read in fluorescence (excitation: 535 nm; emission 587 nm) by an Infinite 200 PRO mod. M PLEX multifunction plate reader (Tecan Group Ltd., Männedorf, Switzerland). […]\nData in relative fluorescence units (RFU) from the investigation on KSL-W suppression of S. aureus cytotoxicity were processed as follows. […]", "data": [{"substance": "Tween-20", "values": [{"measurement": "cytotoxicity (LDH, % of Lysate Control)", "value": 50.3, "unit": "%"}]}]}
